Experimental data: ChEMBL document CHEMBL1909046, “DrugMatrix in vitro pharmacology data”

Columns and labels:
[1] = biological target: T1, 3-hydroxy-3-methylglutaryl-coenzyme A reductase (Homo sapiens, UniProt P04035); set-up: species or system Escherichia coli;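 note: enzyme inhibition assay of HMG-CoA reductase using radiolabeled [14C]HMG-CoA as substrate; in other assays of this panel Not Active means under 50% inhibition at 10 µM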
T1 sequence (P04035 whole entry): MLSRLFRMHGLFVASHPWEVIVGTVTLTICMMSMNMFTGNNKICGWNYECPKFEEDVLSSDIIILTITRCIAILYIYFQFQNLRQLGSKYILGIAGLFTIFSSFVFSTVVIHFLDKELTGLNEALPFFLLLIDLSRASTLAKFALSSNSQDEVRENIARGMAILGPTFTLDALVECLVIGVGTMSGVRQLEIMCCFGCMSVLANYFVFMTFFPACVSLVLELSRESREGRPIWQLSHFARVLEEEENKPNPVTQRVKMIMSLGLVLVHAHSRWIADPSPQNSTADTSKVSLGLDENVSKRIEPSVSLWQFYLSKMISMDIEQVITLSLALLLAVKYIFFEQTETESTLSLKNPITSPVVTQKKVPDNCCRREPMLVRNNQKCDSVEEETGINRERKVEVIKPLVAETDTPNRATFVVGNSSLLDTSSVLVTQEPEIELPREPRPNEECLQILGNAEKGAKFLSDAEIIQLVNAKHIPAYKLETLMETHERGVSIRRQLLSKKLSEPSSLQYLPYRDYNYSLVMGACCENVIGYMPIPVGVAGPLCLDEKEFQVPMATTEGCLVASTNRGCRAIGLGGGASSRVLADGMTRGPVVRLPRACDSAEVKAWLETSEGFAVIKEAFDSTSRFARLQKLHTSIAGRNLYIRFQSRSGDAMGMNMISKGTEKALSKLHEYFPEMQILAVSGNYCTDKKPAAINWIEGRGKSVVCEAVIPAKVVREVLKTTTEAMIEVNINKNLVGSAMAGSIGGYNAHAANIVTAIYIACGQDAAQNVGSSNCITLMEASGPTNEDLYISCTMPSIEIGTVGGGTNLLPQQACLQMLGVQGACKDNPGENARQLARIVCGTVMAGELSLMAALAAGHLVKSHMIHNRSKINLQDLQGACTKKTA

[2] = biological target: T2, Type-2 angiotensin II receptor (Homo sapiens, UniProt P50052); assay type: cell-based; settings: cho-k1; note: in other assays of this panel Not Active means under 50% inhibition at 10 µM
T2 sequence (P50052 whole entry): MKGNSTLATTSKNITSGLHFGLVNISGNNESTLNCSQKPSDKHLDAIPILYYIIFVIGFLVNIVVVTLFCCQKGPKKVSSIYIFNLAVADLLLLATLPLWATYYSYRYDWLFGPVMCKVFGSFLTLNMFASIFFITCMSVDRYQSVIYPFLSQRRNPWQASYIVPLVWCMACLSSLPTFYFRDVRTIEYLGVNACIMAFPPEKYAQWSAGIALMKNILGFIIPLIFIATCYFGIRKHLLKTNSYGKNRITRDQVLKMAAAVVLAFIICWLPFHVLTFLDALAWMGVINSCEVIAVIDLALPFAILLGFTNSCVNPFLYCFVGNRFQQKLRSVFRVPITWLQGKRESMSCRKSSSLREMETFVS

[3] = biological target: Vascular endothelial growth factor receptor 1 (Homo sapiens, UniProt P17948); assay type: cell-based; settings: huvec; note: in other assays of this panel Not Active means under 50% inhibition at 10 µM
Sequence of Vascular endothelial growth factor receptor 1 (P17948 whole entry): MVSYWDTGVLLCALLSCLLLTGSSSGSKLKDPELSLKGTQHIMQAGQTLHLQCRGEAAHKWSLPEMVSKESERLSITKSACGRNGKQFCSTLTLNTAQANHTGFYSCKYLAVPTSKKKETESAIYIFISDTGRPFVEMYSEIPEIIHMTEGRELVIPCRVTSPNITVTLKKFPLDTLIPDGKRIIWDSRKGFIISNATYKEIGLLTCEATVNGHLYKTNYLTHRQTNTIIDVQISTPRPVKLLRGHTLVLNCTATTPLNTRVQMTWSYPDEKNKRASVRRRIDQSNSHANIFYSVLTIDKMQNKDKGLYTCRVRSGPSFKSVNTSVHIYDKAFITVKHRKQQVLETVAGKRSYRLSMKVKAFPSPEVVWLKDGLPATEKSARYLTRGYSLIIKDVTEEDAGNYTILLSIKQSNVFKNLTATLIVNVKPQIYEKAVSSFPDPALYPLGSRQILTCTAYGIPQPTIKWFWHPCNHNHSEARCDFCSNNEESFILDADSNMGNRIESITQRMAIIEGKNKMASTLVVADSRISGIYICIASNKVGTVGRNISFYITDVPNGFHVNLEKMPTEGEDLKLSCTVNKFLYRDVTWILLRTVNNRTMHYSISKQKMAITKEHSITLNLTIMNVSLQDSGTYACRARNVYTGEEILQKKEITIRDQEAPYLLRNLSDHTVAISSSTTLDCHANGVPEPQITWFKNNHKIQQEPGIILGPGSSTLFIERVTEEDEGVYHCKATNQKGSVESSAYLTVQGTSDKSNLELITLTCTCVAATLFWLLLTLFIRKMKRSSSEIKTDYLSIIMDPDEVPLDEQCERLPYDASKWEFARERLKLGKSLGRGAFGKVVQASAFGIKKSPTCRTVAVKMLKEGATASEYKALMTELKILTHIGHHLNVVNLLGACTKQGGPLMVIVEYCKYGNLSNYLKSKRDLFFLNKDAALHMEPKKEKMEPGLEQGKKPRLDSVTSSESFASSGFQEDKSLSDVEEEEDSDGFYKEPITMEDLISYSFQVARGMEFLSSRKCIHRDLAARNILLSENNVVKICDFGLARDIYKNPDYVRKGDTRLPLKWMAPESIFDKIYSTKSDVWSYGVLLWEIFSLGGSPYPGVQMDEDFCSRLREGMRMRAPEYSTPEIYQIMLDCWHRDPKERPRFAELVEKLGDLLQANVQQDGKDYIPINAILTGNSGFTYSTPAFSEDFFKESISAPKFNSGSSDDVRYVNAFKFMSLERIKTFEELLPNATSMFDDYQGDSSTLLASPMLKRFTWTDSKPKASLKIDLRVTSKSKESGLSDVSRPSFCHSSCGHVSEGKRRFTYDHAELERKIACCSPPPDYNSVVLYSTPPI

[4] = biological target: T3, Alpha-2C adrenergic receptor (Homo sapiens, UniProt P18825); assay: DRUGMATRIX: Adrenergic Alpha-2C radioligand binding (ligand: [3H] MK-912); assay type: cell membranes, Sf9, Membrane; settings: sf9
T3 sequence (P18825 whole entry): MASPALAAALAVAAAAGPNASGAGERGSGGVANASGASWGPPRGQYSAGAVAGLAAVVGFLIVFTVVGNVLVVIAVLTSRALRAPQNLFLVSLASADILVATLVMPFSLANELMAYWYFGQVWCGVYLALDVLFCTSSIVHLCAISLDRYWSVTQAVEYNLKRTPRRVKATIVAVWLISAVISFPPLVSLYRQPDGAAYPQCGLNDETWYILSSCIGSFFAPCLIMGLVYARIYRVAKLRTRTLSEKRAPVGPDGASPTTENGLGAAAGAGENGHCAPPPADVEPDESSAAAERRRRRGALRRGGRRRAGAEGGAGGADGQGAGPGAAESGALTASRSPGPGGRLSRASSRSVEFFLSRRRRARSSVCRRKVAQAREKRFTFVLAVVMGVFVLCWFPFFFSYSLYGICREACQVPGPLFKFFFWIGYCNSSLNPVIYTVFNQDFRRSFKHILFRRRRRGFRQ

[5] = biological target: Beta-1 adrenergic receptor (Homo sapiens, UniProt P08588); assay: DRUGMATRIX: Adrenergic beta1 radioligand binding (ligand: [125I] Cyanopindolol); assay type: cell membranes, CHO-K1, Membrane; settings: cho-k1; Not Active = under 50% inhibition at 10 µM
Sequence of Beta-1 adrenergic receptor (P08588 whole entry): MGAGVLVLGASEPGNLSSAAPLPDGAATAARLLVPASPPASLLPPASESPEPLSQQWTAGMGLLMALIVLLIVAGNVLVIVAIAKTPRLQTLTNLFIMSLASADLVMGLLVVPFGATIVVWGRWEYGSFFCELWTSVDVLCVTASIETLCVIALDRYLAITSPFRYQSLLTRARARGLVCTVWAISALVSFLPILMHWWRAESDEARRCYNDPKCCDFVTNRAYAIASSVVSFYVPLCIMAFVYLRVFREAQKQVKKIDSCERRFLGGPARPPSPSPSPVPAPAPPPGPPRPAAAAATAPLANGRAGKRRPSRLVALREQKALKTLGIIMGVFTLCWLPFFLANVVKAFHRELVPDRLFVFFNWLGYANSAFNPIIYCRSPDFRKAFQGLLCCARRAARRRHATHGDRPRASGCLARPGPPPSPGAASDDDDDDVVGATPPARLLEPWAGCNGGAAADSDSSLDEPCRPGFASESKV

[6] = DRUGMATRIX: Interleukin IL-1 radioligand binding (ligand: [125I] interleukin 1beta); assay type: cell membranes, Membrane; settings: nih3t3; Not Active = under 50% inhibition at 10 µM
[7] = biological target: Prostaglandin G/H synthase 1 (Homo sapiens, UniProt P23219); assay: biochemical; assay type: tissue-based, Platelet; settings: platelet;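 note: inhibition of COX-1 enzyme activity, with arachidonic acid supplied as substrate; in other assays of this panel Not Active means under 50% inhibition at 10 µM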
Sequence of Prostaglandin G/H synthase 1 (P23219 whole entry): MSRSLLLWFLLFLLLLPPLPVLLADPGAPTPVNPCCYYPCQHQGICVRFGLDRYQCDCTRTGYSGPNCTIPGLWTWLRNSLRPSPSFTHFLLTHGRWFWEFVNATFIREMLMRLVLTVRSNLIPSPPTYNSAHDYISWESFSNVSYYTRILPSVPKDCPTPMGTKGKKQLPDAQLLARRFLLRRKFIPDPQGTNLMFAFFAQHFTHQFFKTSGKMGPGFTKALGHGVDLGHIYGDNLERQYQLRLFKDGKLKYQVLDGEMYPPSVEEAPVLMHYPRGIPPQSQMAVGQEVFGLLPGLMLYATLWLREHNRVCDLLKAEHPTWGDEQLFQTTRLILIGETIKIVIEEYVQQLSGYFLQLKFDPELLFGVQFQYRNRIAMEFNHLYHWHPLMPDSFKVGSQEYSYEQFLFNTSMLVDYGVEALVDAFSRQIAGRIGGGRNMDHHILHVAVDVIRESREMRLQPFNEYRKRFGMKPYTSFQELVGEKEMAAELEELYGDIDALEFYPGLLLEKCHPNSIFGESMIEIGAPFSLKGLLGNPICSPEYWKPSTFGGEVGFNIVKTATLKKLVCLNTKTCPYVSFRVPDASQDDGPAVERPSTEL

LEAD(IV) ACETATE
Not Active: IC50 [1] | Ki [1] | IC50 [2] | Ki [2] | IC50 [3] | Ki [3] | IC50 [4] | Ki [4] | IC50 [5] | Ki [5] | IC50 [6] | Ki [6] | IC50 [7] | Ki [7]

CC(O)C(=O)O (configuration not stated) [LACTIC ACID]
Not Active: IC50 [1] | IC50 [2] | IC50 [3] | IC50 [4] | IC50 [5] | IC50 [6] | Ki [6] | IC50 [7]
